Biological target: T1, STK32C (YANK3) (Homo sapiens, UniProt Q86UX6)
T1 construct: purchased Thermo Fisher Scientific (Life Technologies) SelectScreen
Assay: SelectScreen LanthaScreen
Format: binding
Details: read-out: % displacement
Summary of the method: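 Percent values come from Thermo SelectScreen profiling of NU5455, combining activity and binding assays. CSF1R was run in Z'LYTE format at Km app ATP, and CAMK1 in Adapta format with ATP listed at 10.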

T1 sequence (Q86UX6 whole entry): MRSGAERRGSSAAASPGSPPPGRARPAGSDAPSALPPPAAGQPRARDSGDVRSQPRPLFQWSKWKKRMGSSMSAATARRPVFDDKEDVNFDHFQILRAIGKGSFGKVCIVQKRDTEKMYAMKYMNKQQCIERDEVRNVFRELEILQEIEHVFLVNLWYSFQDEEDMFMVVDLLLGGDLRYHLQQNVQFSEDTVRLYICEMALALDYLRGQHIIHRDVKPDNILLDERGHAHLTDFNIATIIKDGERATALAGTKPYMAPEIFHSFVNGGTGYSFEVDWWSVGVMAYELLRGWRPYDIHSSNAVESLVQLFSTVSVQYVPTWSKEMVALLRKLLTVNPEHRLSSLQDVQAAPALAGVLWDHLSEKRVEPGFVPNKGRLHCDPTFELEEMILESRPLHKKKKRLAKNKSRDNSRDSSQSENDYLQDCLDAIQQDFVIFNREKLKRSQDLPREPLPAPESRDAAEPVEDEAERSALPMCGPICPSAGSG

CN(C(=O)CN1CCOCC1)c1ccc2sc3c(-c4cccc5c(=O)cc(N6CC7CCC(C6)O7)oc45)cccc3c2c1 [NU5455] showed an inhibition at 1 µM of 4.2%.

Source: paper PMC6934184, “Selective DNA-PKcs inhibition extends the therapeutic index of localized radiotherapy and chemotherapy” (The Journal of Clinical Investigation, 2019)
